{"source": "ChEMBL document CHEMBL1141570", "about": "“Glycosidase profiling with immobilised glycosidase-inhibiting iminoalditols--a proof-of-concept study” (Bioorg Med Chem Lett, 2008)", "note": "pKi: −log10 of the molar value."}
{"biological_target": "T1, Beta-glucosidase (Agrobacterium sp. ATCC 21400, UniProt P12614)", "T1 sequence (P12614 whole entry)": "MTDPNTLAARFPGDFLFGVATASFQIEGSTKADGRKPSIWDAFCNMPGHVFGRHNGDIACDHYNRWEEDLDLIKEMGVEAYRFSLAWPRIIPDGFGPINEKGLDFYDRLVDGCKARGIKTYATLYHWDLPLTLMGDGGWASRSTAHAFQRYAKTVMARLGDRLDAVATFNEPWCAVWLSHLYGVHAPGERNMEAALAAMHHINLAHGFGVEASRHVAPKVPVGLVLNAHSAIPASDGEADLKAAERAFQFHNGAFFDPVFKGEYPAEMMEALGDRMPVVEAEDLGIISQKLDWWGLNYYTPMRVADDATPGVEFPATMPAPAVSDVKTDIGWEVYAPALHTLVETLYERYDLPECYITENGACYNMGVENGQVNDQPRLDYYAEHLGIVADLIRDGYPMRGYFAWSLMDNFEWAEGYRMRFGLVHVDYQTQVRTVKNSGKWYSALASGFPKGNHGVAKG", "assay": "Inhibition of Agrobacterium sp. beta-glucosidase"}
{"compound": "COC(=O)CCCCCNC(=O)[C@H](CCCCN1C[C@H](O)[C@@H](O)[C@H](O)[C@H]1CO)NS(=O)(=O)c1cccc2c(N(C)C)cccc12", "pKi": 5.21}
{"compound": "COC(=O)CCCCCNC(=O)CCCCCN1[C@H](CO)[C@@H](O)[C@H](O)[C@H]1CNS(=O)(=O)c1cccc2c(N(C)C)cccc12", "pKi": 6.05}
{"compound": "COC(=O)CCCCCNC(=O)[C@H](CCCCN1C[C@@H](O)[C@@H](O)[C@H](O)[C@H]1CO)NS(=O)(=O)c1cccc2c(N(C)C)cccc12", "pKi": 3.00}
